Data reported in US20050244427A1, “Isolation and production of bioactive marine products” (priority 2004, published 2005).

Test system: Symbiodinium cells isolated from Eunicea fusca
Assay: Effect of plant growth factors on fuscol production in in vitro cultures of alga cells isolated from Eunicea fusca
Assay type: cell-based
Settings: One hundred μM added for 48 hours after 24 hours in culture medium; compared with untreated control cells; RP HPLC, detection at 240 nm; FIG. 4
Experimental: FIG. 4 is a graph showing the induction of fuscol production in Symbiodinium cells isolated from Eunicea fusca with Methyl Jasmonate, Giberellic Acid and Salicyclic Acid.
Live Eunicea fusca was collected from Florida Keys. The tissue was homogenized in a blender using 50:50 DI/Filtered Seawater (FSW). The homogenate was strained into 50 mL Falcon tubes and centrifuged at 160×g for 5 minutes. The supernatant was discarded and the pellet was resuspended in 50:50 DI/FSW. The sample was centrifuged again, followed by three rounds of rinsing and centrifuging until the supernatant was clear. The cell pellet was layered over a Percoll gradient (30% and 70%) and centrifuged at 38×g for 10 minutes. Cells on the 30/70% interface were collected using a plastic pipet and rinsed two times in 50:50 DI/FSW water. Cells were examined by light microscopy to assess cell purity and to count the number of cells. 2.38×10^8 cells (500 μL) were removed from the sample and diluted to 2 mL with tris buffer (20 mM containing 3 mM EDTA, 5 mM MgCl2 and 5 mM β-mercaptoethanol). The sample was incubated with 1μ Ci ^3H-GGPP for 24 hrs at 29° C. and 180 RPM. The cells were centrifuged and the buffer was removed using a syringe and filtered into a scintillation vial. The cells were extracted with methylene chloride and ethyl acetate (8 times) followed by filtration into the scintillation vial containing the buffer. The crude extract was dried and weighed. The dried extract weighed 7.08 mg. The extract was partitioned between MeOH:H2O 9:1 and hexanes. The hexanes layer was dried and weighed. This layer weighed 4.77 mg. Water was added to make MeOH:H2O at a ratio of 1:1 and partitioned with methylene chloride. The CH2Cl2 layer was dried and weighed. This layer weighed 1.67 mg.
Referring to FIG. 4, the effect of growth factors on the production of fuscol in in vitro cultures of alga cells isolated from Eunicea fusca (as described above) was analyzed. […] The cells were then extracted and fuscol concentrations were determined by standard chromatographic methods (RP HPLC, detection at λ 240 nm).

| Structure (SMILES) | production of fuscol (fuscol concentration in extracted cells) |
| --- | --- |
| C=C1C[C@]23CC1(O)CC[C@H]2[C@@]12C=C[C@H](O)C(C)(C(=O)O1)[C@H]2[C@@H]3C(=O)O [giberellic acid] | Significantly more fuscol was produced |
| O=C(O)c1ccccc1O [salicyclic acid] | Significantly more fuscol was produced |
| CC/C=C\CC1C(=O)CCC1CC(=O)OC (stereo not drawn) [methyl jasmonate] | Significantly more fuscol was produced |
